# Calls of active or inactive are those of the source.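 How the source made its calls: active means compounds giving half or more protection of infected cells from virus-caused growth loss, again on retest; inactive means the rest.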
# Tested on: CEM cells HIV-1 protection, formazan growth assay
# Assay: NCI AIDS Antiviral Assay
# Conditions: for IC50: measured here: growth of uninfected CEM cells
# In short: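 CEM (human) cells, HIV-1 infected vs uninfected, 5-point dosing, formazan growth read-out. Retest threshold 50% protection.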
SMILES,EC50 [µM],IC50 [µM],outcome
CN(C)Cc1cc(N=Nc2c(Cl)cccc2Cl)ccc1O,> 200,83.2,
O=C(/C=C\c1ccccc1)Oc1ccc(/C=C2\CCCCC2=O)cc1,> 200,7.08,
O=C(O)c1cc(=O)[nH]c(O)c1N=Nc1ccc(/C=C/c2ccc(N=Nc3c(C(=O)O)cc(=O)[nH]c3O)cc2S(=O)(=O)O)c(S(=O)(=O)O)c1,> 200,102,
Cc1[nH]c(=O)[nH]c(=O)c1/C=C/C(=O)NC(CO)CS(=O)Cc1ccccc1 (stereo not drawn),> 200,> 200,
COC(=O)c1ccc(NCc2cc(O)ccc2O)cc1O,> 200,10.5,
CNc1cc[nH]c(=O)c1NC(C)=O,> 1380,> 1380,
CN(C)CC1CCCC/C1=N/OC(=O)c1ccc(Cl)cc1 (stereo not drawn),,,inactive
COC(=O)CSc1nnc(CSc2ccc(Cl)cc2)n1-c1ccccc1,> 200,105,
COc1cc2c(cc1OC)C1C(=O)c3c(O)cc4c(c3OC1CO2)C=CC(C)(C)O4 (stereo not drawn),> 1.82,0.891,
N#C/C=C\c1ccc(C#N)cc1,> 64.6,> 64.6,
O=C(O)c1cc(O)c(Br)c(O)c1N=Nc1ccc(/C=C/c2ccc(N=Nc3c(C(=O)O)cc(O)c(Br)c3O)cc2S(=O)(=O)O)c(S(=O)(=O)O)c1,166,> 200,
CCN(CC)C1=CC(=O)n2cccc21,> 200,> 200,
COc1cccc(/C(CC(O)(C(F)(F)F)C(F)(F)F)=N\N(C)C)c1,> 200,> 200,
Fc1ccc(C2(CCCN3CCc4[nH]c5cc(F)ccc5c4C3)OCCO2)cc1,> 200,18.6,
CC(C)(C)[Si](C)(C)OCC1OC(n2ccc(=O)[nH]c2=O)C/C1=N/O (stereo not drawn),> 200,74.1,
CCCCCCC(=O)C(O)C(O)C(=O)CCCCCCCC(=O)O (stereo not drawn),> 200,97.7,
NCCS(=O)(=O)O,> 200,> 200,
CC12CC3(O)OC(O1)C1(COC(=O)c4ccccc4)C3C[C@@]21OC1OC(COC(=O)c2cc(O)c(O)c(O)c2)C(O)C(O)C1O (stereo partly drawn),,,inactive
CCc1oc2ccccc2c1C(=O)c1cc(Br)c(O)c(Br)c1,> 200,34.7,
CCOC(=O)CC1C(O)C(=O)N(C)C1c1ccccc1 (stereo not drawn),,,inactive
CC(=O)OCSc1ncnc2c1ncn2CN1CCOCC1,> 776,0.575,

SMILES,EC50 [µM],IC50 [µM],outcome
CN=c1ss/c(=N\C(=S)N(C)C)n1-c1ccccc1,,,inactive
Nc1ccc2c3c(cccc13)C(=O)N(CCCBr)C2=O,> 200,7.08,
O=C(c1no[n+]([O-])c1C(=O)c1csc2ccccc12)c1csc2ccccc12,> 200,1.05,
CO[C@H]1/C=C/O[C@@]2(C)Oc3c(C)c(O)c4c(O)c(c(/C=N/N5CCNCC5)c(O)c4c3C2=O)NC(=O)/C(C)=C\C=C\[C@H](C)[C@H](O)[C@@H](C)[C@@H](O)[C@@H](C)C(OC(C)=O)[C@@H]1C (stereo partly drawn),> 200,50.1,
CC(=O)C(=Cc1cccc(C#N)c1)C(C)=O,> 63.1,34.7,
Fc1ccc(/C=N\N=C(N/N=C/c2ccc(F)cc2)N/N=C/c2ccc(F)cc2)cc1,> 200,19.5,
CN1CCCCCCCC(=O)C(OC(=O)c2ccc([N+](=O)[O-])cc2)CCCCCCC1 (stereo not drawn),> 100,72.4,
Nc1ncccc1N1C(=O)c2ccccc2C1=O,> 200,> 200,
CCOc1ccc(C2(C)OC(=O)C3CCCCC32)c2ccccc12 (stereo not drawn),,,inactive
COC(=O)CCC(=O)Nc1cc(Cl)ccc1Cl,> 468,> 468,
Cc1ccc(-n2c(=S)n(-c3ccccc3C)c3nc4ccccc4nc2/c3=N\Nc2ccc(Cl)cc2)cc1,117,123,
COC(=O)[C@]1(C)CCC[C@]2(C)c3ccc(C(C)C)cc3C(=O)C[C@@H]12,> 200,31.6,
COc1cc2nncc(SCc3ccc(Cl)cc3)c2cc1OC,> 77.6,> 77.6,
COc1c(OC(C)=O)cc2c(OC(C)=O)c1CC(C)CC(OC)C(O)C(C)/C=C(\C)C(OC(N)=O)C(OC)/C=C\C=C(/C)C(=O)N2 (stereo not drawn),> 195,3.02,
CCOC(=O)C1=CC(C)(C(=O)OCC)Nc2c(nc(OC)n(C)c2=O)N1 (stereo not drawn),> 200,> 200,
O=C1ONN(c2ccccc2)/C1=C/N=Nc1ncnc2nc[nH]c12,162,> 200,
O=c1oc2ccc([N+](=O)[O-])cc2cc1-c1csc(-c2ccccc2)n1,,,inactive
COc1ccc(CN2C(=O)C(=O)N(C)C2=O)c2ccccc12,> 200,25.7,
CC1(CCc2ccccc2)CC1(Br)Br (stereo not drawn),> 200,95.5,
Cc1c2ccccc2c(CSC(=N)N)c2ccccc12,> 200,0.112,
COCn1c(C)c(C)c2c(=O)oc(N(C)C)nc21,> 200,138,

# — PubChem BioAssay AID179 (DTP/NCI, 2004)
